{"source": "patent US20050054587A1", "about": "“Novel therapeutic indication of azithromycin for treatment of non-infective inflamatory diseases” (priority 2001, published 2005)", "type_in_all_cases": "in vivo, human", "key": {"glutathione reductase": {"system": "glutathione reductase", "test": "Glutathione reductase activity in PMN lysates (BIOXYTECH GR-340)", "settings": "healthy volunteers, azithromycin 3×500 mg, baseline 9.63 ± 1.16", "description": "(§1) A trial on healthy volunteers was conducted and the influence of azithromycin given in a dosage of 3×500 mg on selected inflammation-relevant parameters was followed up.\n(§2) Each subject received two standard 250 mg capsules of azithromycin (Sumamed®, PLIVA Zagreb) on three consecutive days. Immediately before the treatment and 2 h and 30 min, 24 h and 28 days after the third and last dose of azithromycin blood was collected from the cubital vein into EDTA-containing tubes. Aliquots were taken for cell counting, smear preparation, polymorphonuclear cell and serum isolation.\nGlutathione reductase is an ubiquitous enzyme that catalyses the reduction of oxidised glutathione (GSSG) to glutathione (GSH). Glutathione reductase is essential for the glutathione redox cycle that maintains adequate levels of reduced cellular GSH. GSH serves as an antioxidant, reacting with free radicals and organic peroxides, in amino acid transport, and as a substrate for the GSHPx and glutathione S-transferases in the detoxification of organic peroxides and metabolism of xenobiotics. Glutathione reductase was determined using the BIOXYTECH® GR-340™ colorimetric assay for glutathione reductase (OXIS International, Inc.). Briefly, oxidation of NADPH to NADP^+ is catalysed by a limiting concentration of glutathione reductase."}, "[1]": {"system": "glutathione peroxidase (GSHPx)", "test": "Glutathione peroxidase activity in PMN lysates (RANSEL kit)", "settings": "healthy volunteers, azithromycin 3×500 mg, baseline 5.3 ± 2.0", "description": "as §1, §2\nCellular glutathione peroxidase (GSHPx) is a tetrameric protein in which each of the four identical subunits contains one atom of selenium (Se) in the form of selenocysteine at the active site (Misso et al., J. Leukoc. Biol. (1998), 63: 124-130). GSHPx plays a role in H202 detoxification and converts lipid hydroperoxides to nontoxic alcohols (Akkus et al., Clin. Chim. Acta (1996), 244: 221-227); Urban et al., Biomed & Pharmacother. (1997), 51: 388-390). In this study, in healthy volunteers treated with azithromycin alterations in the PMN intracellular GSHPx activity were determined using the commercially available kit RANSEL (Randox Laboratories). GSHPx catalyses the oxidation of glutathione by cumene hydroperoxide. In the presence of glutathione reductase and NADPH the oxidised glutathione is immediately converted to the reduced form with a concomitant oxidation of NADPH to NADP^+. The decrease in absorbance at 340 nm is measured."}, "sVCAM": {"system": "sVCAM", "test": "Serum sVCAM concentration, ELISA", "settings": "healthy volunteers, azithromycin 3×500 mg, baseline 13.59 ± 2.90", "description": "as §1, §2\nFor quantitative determination of serum concentration of human sVCAM, an ELISA kit was used (R&D systems, UK)"}, "β-glucuronidase [2]": {"system": "β-glucuronidase", "test": "β-glucuronidase activity in neutrophil (PMN) lysates, fluorimetric", "settings": "healthy volunteers; for β-glucuronidase (PMN): azithromycin 3×500 mg, baseline 4.12 ± 2.7", "description": "as §1, §2\n(§3) Glycosidases are enzymes that catalyse hydrolysis of glycosidic bonds of oligosacharides and other glycosides. They are specific to the glycosidic part of substrate molecule. N-acetyl-β-D-glucosaminidase (NAGA) and β-glucuronidase are such enzymes. They are lysosomal enzymes, both located in azurophilic (primary; peroxidase-positive) granules of neutrophils. Since degranulation of neutrophils is present during inflammation, many authors choose these enzymes as markers of degranulation and for estimation of neutrophil reactivity. The catalytic concentration of both enzymes in serum and in neutrophil lysates was determined using the fluorimetric method described by O'Brien et al. (New Engl. J. Med. (1970) 283: 15-20) for NAGA and Glaser & Sly (J. Lab. Clin. Med. (1973) 82: 969) for β-glucuronidase."}, "[3]": {"system": "N-acetyl-β-D-glucosaminidase (NAGA)", "test": "NAGA activity in neutrophil (PMN) lysates, fluorimetric", "settings": "healthy volunteers; for NAGA (PMN): azithromycin 3×500 mg, baseline 4.15 ± 01.6", "description": "as §1, §2, §3"}, "neutrophils": {"system": "neutrophils", "test": "fMLP-stimulated neutrophil oxidative burst, cytochrome c assay", "settings": "healthy volunteers, azithromycin 3×500 mg, baseline 0.020 ± 0,014, absorbances 550 nm and 540 nm", "description": "as §1, §2\nNeutrophils were incubated with cytochrome c and stimulated with fMLP (Cohen and Chovaniec, 1978, J. Clin. Invest. 61: 1081-1087). Absorbances at 550 nm and 540 nm were recorded and the results were expressed as delta A."}, "β-glucuronidase [4]": {"system": "β-glucuronidase", "test": "β-glucuronidase activity in serum, fluorimetric", "settings": "healthy volunteers; for β-glucuronidase (serum): azithromycin 3×500 mg, baseline 2.88 ± 0.7", "description": "as §1, §2, §3"}, "granulocytes": {"system": "granulocytes", "test": "Apoptotic cells by morphology of blood smears", "settings": "healthy volunteers, azithromycin 3×500 mg, baseline 0.333 ± 0.655", "description": "as §1, §2\nThree-day administration of azithromycin exerted a delayed pro-apoptotic effect on granulocytes, as indicated by morphology of blood smears. The number of apoptotic cells counted increased continuously after the three day dosing with azithromycin, achieving statistical significance 28 days after the last dose."}, "[5]": {"system": "N-acetyl-β-D-glucosaminidase (NAGA)", "test": "NAGA activity in serum, fluorimetric", "settings": "healthy volunteers; for NAGA (serum): azithromycin 3×500 mg, baseline 9.16 ± 1.6", "description": "as §1, §2, §3"}, "GRO-α": {"system": "GRO-α", "test": "Serum GRO-α concentration, ELISA", "settings": "healthy volunteers, azithromycin 3×500 mg, baseline 124.1 ± 33.02", "description": "as §1, §2\nCytokine and chemokine concentrations were determined using ELISA kits. […] Rapid and pronounced decreases in the plasma concentrations of the neutrophil-stimulating chemokine, IL-8, and GR0-α were observed 2 h and 30 min and 24 h after the last dose of azithromycin (Table 1. The concentration of IL-8 returned essentially to baseline after 28 days, while that of GRO-[…] was decreased at this time."}, "[6]": {"settings": "3×500 mg, 24 hours after the last dose"}}, "data": [{"smiles": "CC[C@H]1OC(=O)[C@H](C)[C@@H](O[C@H]2C[C@@](C)(OC)[C@@H](O)[C@H](C)O2)[C@H](C)[C@@H](O[C@@H]2O[C@H](C)C[C@H](N(C)C)[C@H]2O)[C@](C)(O)C[C@@H](C)CN(C)[C@H](C)[C@@H](O)[C@]1(C)O", "note": "[azithromycin, 9-deoxo-9-dihydro-9a-methyl-9a-aza-9a-homoerythromycin A]", "values": [{"measurement": "GLUTATHION REDUCTASE (PMN)", "setting": "glutathione reductase; 2 h and 30 min after last dose", "result": "7.39 ± 1.23", "unit": "mU/10^6PMN"}, {"measurement": "GLUTATHION REDUCTASE (PMN)", "setting": "glutathione reductase; 24 hours after last dose", "result": "7.91 ± 0.87", "unit": "mU/10^6PMN"}, {"measurement": "GLUTATHION REDUCTASE (PMN)", "setting": "glutathione reductase; 28 days after last dose", "result": "11.27 ± 2.24", "unit": "mU/10^6PMN"}, {"measurement": "GLUTATHION PEROXIDASE (PMN)", "setting": "[1]; 2 h and 30 min after last dose", "result": "5.3 ± 2.9", "unit": "mU/10^6PMN"}, {"measurement": "GLUTATHION PEROXIDASE (PMN)", "setting": "[1]; 24 hours after last dose", "result": "1.6 ± 1.3", "unit": "mU/10^6PMN"}, {"measurement": "GLUTATHION PEROXIDASE (PMN)", "setting": "[1]; 28 days after last dose", "result": "8.0 ± 5.2", "unit": "mU/10^6PMN"}, {"measurement": "sV-CAM (serum)", "setting": "sVCAM; 2 h and 30 min after last dose", "result": "12.21 ± 4.12", "unit": "ng/mL"}, {"measurement": "sV-CAM (serum)", "setting": "sVCAM; 24 hours after last dose", "result": "10.29 ± 2.12", "unit": "ng/mL"}, {"measurement": "sV-CAM (serum)", "setting": "sVCAM; 28 days after last dose", "result": "10.74 ± 2.05", "unit": "ng/mL"}, {"measurement": "decrease of activities of β-glucuronidase in PMN compared to initial values", "setting": "β-glucuronidase [2]; 3×500 mg, 24 hours", "result": "about 50%"}, {"measurement": "β-glucuronidase activity in PMN higher compared to the initial values", "setting": "β-glucuronidase [2]; 3×500 mg, 28 days later", "result": "about 300%"}, {"measurement": "decrease of activities of β-glucuronidase in PMN compared to initial values", "setting": "β-glucuronidase [2]; 3×500 mg, after 2 h and 30 min", "result": "about 20%"}, {"measurement": "β-glucuronidase (PMN)", "setting": "β-glucuronidase [2]; 2 h and 30 min after last dose", "result": "3.21 ± 2.3 nmol × 10^−6 cells × min^−1"}, {"measurement": "β-glucuronidase (PMN)", "setting": "β-glucuronidase [2]; 24 hours after last dose", "result": "1.58 ± 0.4 nmol × 10^−6 cells × min^−1"}, {"measurement": "β-glucuronidase (PMN)", "setting": "β-glucuronidase [2]; 28 days after last dose", "result": "15.37 ± 11.4 nmol × 10^−6 cells × min^−1"}, {"measurement": "decrease in NAGA in granulocytes", "setting": "[3]; 3×500 mg, 2 h and 30 min after the last dose, vs initial values", "result": "about 70%"}, {"measurement": "NAGA activity in PMN lower compared to initial values", "setting": "[3]; [6]", "result": "about 40%"}, {"measurement": "NAGA activity in PMN increase from the 2 h and 30 min value", "setting": "[3]; 3×500 mg, 24 hours later", "result": "about 30%"}, {"measurement": "activity of NAGA (PMN) increased over the initial values", "setting": "[3]; 3×500 mg, after 28 days", "result": 40, "unit": "%"}, {"measurement": "NAGA (PMN)", "setting": "[3]; 2 h and 30 min after last dose", "result": "1.13 ± 0.72 nmol × 10^−6 cells × min^−1"}, {"measurement": "NAGA (PMN)", "setting": "[3]; 24 hours after last dose", "result": "2.62 ± 1.6 nmol × 10^−6 cells × min^−1"}, {"measurement": "NAGA (PMN)", "setting": "[3]; 28 days after last dose", "result": "5.95 ± 3.7 nmol × 10^−6 cells × min^−1"}, {"measurement": "OXIDATIVE BURST (PMN) fMLP-cytochrom c", "setting": "neutrophils; 2 h and 30 min after last dose", "result": "0,007 ± 0.015 ΔA"}, {"measurement": "OXIDATIVE BURST (PMN) fMLP-cytochrom c", "setting": "neutrophils; 24 hours after last dose", "result": "−0,018 ± 0.010 ΔA"}, {"measurement": "OXIDATIVE BURST (PMN) fMLP-cytochrom c", "setting": "neutrophils; 28 days after last dose", "result": "−0,0011 ± 0,0010 ΔA"}, {"measurement": "change of activity of β-glucuronidase in serum", "setting": "β-glucuronidase [4]; 3×500 mg, during the first 24 hours after the last dose", "result": "did not show any changes"}, {"measurement": "β-glucuronidase (serum)", "setting": "β-glucuronidase [4]; 2 h and 30 min after last dose", "result": "3.01 ± 0.6", "unit": "µmol/L/min"}, {"measurement": "β-glucuronidase (serum)", "setting": "β-glucuronidase [4]; 24 hours after last dose", "result": "2.95 ± 0.5", "unit": "µmol/L/min"}, {"measurement": "β-glucuronidase (serum)", "setting": "β-glucuronidase [4]; 28 days after last dose", "result": "3.93 ± 1.2", "unit": "µmol/L/min"}, {"measurement": "APOPTOSIS (WBC)", "setting": "granulocytes; 2 h and 30 min after last dose", "result": "0.833 ± 1.029", "unit": "apoptopic cells/1000 WBC"}, {"measurement": "APOPTOSIS (WBC)", "setting": "granulocytes; 24 hours after last dose", "result": "1.417 ± 1.240", "unit": "apoptopic cells/1000 WBC"}, {"measurement": "APOPTOSIS (WBC)", "setting": "granulocytes; 28 days after last dose", "result": "2.583 ± 2.02", "unit": "apoptopic cells/1000 WBC"}, {"measurement": "increase of activity of NAGA in serum vs initial values", "setting": "[5]; 3×500 mg, 2 h and 30 min after the last dose", "result": "about 30%"}, {"measurement": "activity of NAGA in serum higher than the initial values", "setting": "[5]; [6]", "result": "approximately 50%"}, {"measurement": "serum NAGA values higher than initial values", "setting": "[5]; 3×500 mg, 28 days after the last dose", "result": 70, "unit": "%"}, {"measurement": "NAGA (serum)", "setting": "[5]; 2 h and 30 min after last dose", "result": "11.52 ± 2.2", "unit": "µmol/L/min"}, {"measurement": "NAGA (serum)", "setting": "[5]; 24 hours after last dose", "result": "13.7 ± 1.5", "unit": "µmol/L/min"}, {"measurement": "NAGA (serum)", "setting": "[5]; 28 days after last dose", "result": "14.87 ± 1.9", "unit": "µmol/L/min"}, {"measurement": "GRO-α (serum)", "setting": "GRO-α; 2 h and 30 min after last dose", "result": "109.6 ± 30.35", "unit": "pg/mL"}, {"measurement": "GRO-α (serum)", "setting": "GRO-α; 24 hours after last dose", "result": "107.9 ± 27.83", "unit": "pg/mL"}, {"measurement": "GRO-α (serum)", "setting": "GRO-α; 28 days after last dose", "result": "90.4 ± 22.32", "unit": "pg/mL"}]}]}
